Data set [1] concerns cutaneous histamine induced anaphylactoid reactions. Description: inhibition of the anaphylactoid cutaneous reaction induced by histamine. Type of data set: in vivo, Sprague-Dawley rats. As to conditions: Rattus norvegicus, po, 0.5 h; 2 × 10^-5 mole/kg p.o., one hour before histamine; assessed 30 minutes after provocation; read-out: Inhibitory action against cutaneous histamine induced anaphylactoid reactions in rats, % inhibition. As for the experimental part:
1. Determination of the inhibition of the anaphylactoid cutaneous reaction induced by histamine.
The inhibition of the anaphylactoid cutaneous reaction induced by histamine was determined in Sprague-Dawley rats having body weights of 150-180 g.
In order to determine the histamine-induced anaphylactoid skin reaction, 50 μl of a physiological saline solution containing 0.8 mg/ml of histamine were injected into the animals intradermally on one flank. Immediately afterward, a solution of 26.4 mg/kg of a blue dye (Evan's Blue) was administered i.v. to the animals.
The test substances were dissolved in distilled water which contains 1% by volume of dimethylformamide and 1% by volume of Tween®20 (=polyoxyethylene(20) sorbitan monolaurate). One hour before the histamine injection, each animal received 2×10^-5 mol/kg of test substance, in each case administered orally in 0.5 ml of solution. A control group received only the solvent for comparison.
The histamine-induced anaphylactoid reactions which manifested themselves by edema formation, swelling and exudation of blue dye are assessed 30 minutes after provocation by the histamine injection. This is carried out by visual determination of the extent of the exudation of blue dye at the sites of edema formation. With the aid of comparison scales, the percentage inhibition of the anaphylactoid reactions produced by the test substances is determined in comparison with the reactions of the control animals not treated with test substance.
The results obtained with compounds of the formula I by the above test method are reproduced in the following table A. The example numbers given as identifiers for the compounds of formula I refer to the subsequent preparative examples.

Another data set has as its system 5-lipoxygenase. Put plainly: inhibition of 5-lipoxygenase activity in polymorphonuclear rat leucocytes (LTB4 formation). In kind it is cell-based. As to conditions: 10^-5 mol/l; 22° C. In short, it runs like this: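 Thioglycolate-elicited peritoneal PMNs from male Sprague-Dawley rats (0.5×10^6 cells) preincubated 15 min at 22 °C with 10 μM compound in HEPES-buffered HBSS, then stimulated with 5 μM calcimycin for 10 min. LTB4 quantified by reverse-phase HPLC at 270 nm; % inhibition versus solvent control.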

Another data set relates to male mice. As to conditions: mouse, in vivo, po, 1440 min. As for the experimental part:
2. Determination of the minimum toxic dose.
Maximum doses of 300 mg/kg of the test substance were administered orally to male mice each weighing 20-25 g. The animals were carefully observed for symptoms of toxicity for 3 hours. All symptoms and deaths were additionally recorded over a period of 24 hours after administration. Associated symptoms were likewise observed and recorded. If death or severely toxic symptoms were observed, increasingly lower doses were administered to further mice. The lowest dose which caused death or severely toxic symptoms is indicated as the minimum toxic dose in the following Table B: […]

The test system of data set [2] is P.A.F.-induced aggregation of blood platelets. Put plainly: anti-P.A.F. action in vitro (P.A.F.-induced platelet aggregation). Type of data set: cell-based. The following applies: Oryctolagus cuniculus, 10^-5 mole/liter, read-out: Anti-P.A.F. activity in vitro, % inhibition of the P.A.F.-induced aggregation of blood platelets from rabbit blood. An outline of the steps:
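Washed rabbit platelets (4×10^9/ml stock suspension, aspirin-lysine treated) in modified Tyrode buffer pH 7.4 with 1.3 mM CaCl2 and gelatine; test substance at 10^-5 mol/l final, 90 s preincubation before P.A.F. Aggregation followed 4-5 min by aggregometer; % inhibition of P.A.F.-induced aggregation increase calculated.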

As usually defined, the inhibition is the percentage by which the read-out fell short of the control.

SMILES strings stand for the structures. Where only a bound is given, the exact number is not on record here.

Turning to `Cc1ccnc(N2CCN(CCC3Cn4c(-c5ccc(O)cc5)c(C)c5c(Cl)ccc(c54)O3)CC2)c1` (stereo not drawn) [Example 19], the inhibition in vivo at 20 µmol/kg in data set [1] stood at 45%. For the same compound, the “In vitro inhibitory activity on LTB4 formation in rat PMNs stimulated by calcium ionophore A23187” value in the data set on 5-lipoxygenase is reported as 45%. The compound also showed a Minimum toxic dose in the data set on male mice greater than 300 mg/kg. For the same compound, in data set [2], the inhibition at 10 µM stood at 71%.

In the data set with male mice, `COc1ccc(-c2c(C)c3cccc4c3n2CC(CN2CCN(c3cc(C)ccn3)CC2)O4)cc1` (stereo not drawn) [Example 5, 2,3-Dihydro-5-(4-methoxyphenyl)-6-methyl-2-[4-(4-methylpyridin-2-yl)piperazin-1-ylmethyl]pyrrolo[1,2,3-de]-1,4-benzoxazine] came in with a Minimum toxic dose greater than 300 mg/kg. For the same compound, the inhibition at 10 µM in data set [2] was determined as 100%.

Values taken from US5474988A, “5-phenylpyrrolo-1,4-benzoxazine and 5-phenylpyrrolo-1,4-benzothiazine compounds, process and intermediates for their production and pharmaceutical compositions containing them” (Kali-Chemie Pharma GmbH, priority 1993, dated 1995).
